# What was measured:
# ACHN shVHL = experiment: Clonogenic survival, ACHN with shRNA to VHL; assay type: cell-based, human; conditions: FIG. 2E
# LC3 = experiment: Autophagy markers (vacuoles, LC3 processing); assay type: cell-based, human; conditions: RCC4 and RCC4/VHL, 1.25, 2.5 and 5 μM
# Method: (§1) (A) Clonogenic survival of RCC4 and RCC4/VHL treated with […] (5 μM)(*p<0.05). All error bars represent the standard error of the mean. […] RCC4 and RCC4/VHL cells were treated with increasing concentrations of compound 47 (1.25, 2.5 and 5 μM), a negative control (DMSO) and a positive control (4-(pyridin-4-yl)-N-(m-tolyl)thiazol-2-amine). Cells were lysed and probed for LC3, a marker of autophagy, or α-tubulin (loading control). […] RCC4 and RCC4/VHL cells were treated with vehicle, increasing concentrations of compound 47, and camptothecin. Cells were stained with DAPI and nuclear condensation was examined by fluorescence microscopy. (D) RCC4 cells were treated with compound 47 (5 μM) for the indicated time and stained with Annexin V and propidium iodide and subjected to FACS analysis. […] RCC4 and RCC4/VHL cells were subjected to increasing concentrations of compound 47 (1.25, 2.5, and 5 μM), a negative control (DMSO), and a positive control (doxorubicin). Cells were lysed and subjected to Western blot with the indicated antibodies.
# (§2) However, RCC cells without VHL undergo a necrotic cell death in response to compound 47 as measured by the ability of the cells to exclude trypan blue, an indicator of cell membrane integrity.
# RCC4 and RCC4/VHL cells = experiment: Apoptosis (DAPI nuclear condensation, Annexin V / propidium iodide FACS); assay type: cell-based, human
# Method: as §1, §2
# RCC4 [1] = experiment: Lactate production (glycolysis), RCC4; assay type: cell-based; conditions: Homo sapiens; RCC4, 5 μM, compared to control-treated cells; read-out: inhibition of lactate production in VHL-deficient cells
# Method: (§3) All cells were grown in DMEM+10% FCS. ACHN and ACHN shVHL were a kind gift from George V. Thomas (UCLA). HIF overexpressing clones were described previously. Transfection of RNA oligos were performed with DnarmaFECT Reagent 1 (Dharmcon), according to manufacturer's directions. ON-TARGETplus SMART pools against HIF-1β/ARNT were purchased from Dharmacon. Glut1 was detected with anti-GLUT1 antibody from NeoMarkers/LabVision/Fisher. Pyruvate/lactate levels and hexokinase activity were both measured by fluorometric assay (BioVision and Sigma-Aldrich, respectively). ATP levels were measured by bioluminescence assay (ATP Determination Kit from Molecular Probes/Invitrogen). In vitro kinase activities were performed by Millipore KinaseProfiler. Affi-Gel 10 (BioRad) activated affinity media was coupled to analogs to generate immobilized affinity linkers.
# As the central mediator of oxygen homeostasis, HIF plays an important role in the cellular adaptation to low oxygen conditions through the regulation of genes involved in metabolism and energy production. Inactivation of VHL results in an increase in the half-life of HIF protein. […] To examine whether this compound alters the rate of glycolysis in VHL-deficient cells, we measured the intracellular production of lactate, which is rapidly converted from pyruvate, the end-product of glycolysis. […]
# RCC4 [2] = experiment: ATP levels (bioluminescence), VHL-deficient cells; assay type: cell-based, human
# Method: as §3
# We next investigated how a decrease in glycolysis could lead to selective necrotic cell death. One possibility is that the reduction in glycolysis lowers the availability of pyruvate, the essential precursor for the generation of acetyl-CoA. […] We therefore examined oxygen consumption as a marker of oxidative phosphorylation and ATP production in treated and untreated cells. […] However, the decrease in glucose uptake in response to treatment with compound 47 in VHL-deficient cells results in a 75% decrease in ATP levels (FIG. 3G). […]
# CSK = target: T1, CSK (Homo sapiens, UniProt P41240); experiment: In vitro kinase activity (Millipore KinaseProfiler): CSK; assay type: biochemical; conditions: no head or unit printed
# T1 construct: purchased Millipore (KinaseProfiler service)
# Method: as §3
# (§4) We next wanted to investigate the differential glucose uptake between RCCs with and without VHL treated with compound 47 that subsequently lead to the selective death of VHL-deficient cells. We first examined the message levels of the two main glucose transporters, GLUT1 and GLUT2 by quantitative real-time PCR. GLUT1 is an inducible, high-affinity glucose transporter, while GLUT2 is the glucose transporter responsible for basal glucose uptake. […] Cells deficient in VHL had very low levels of GLUT2 that could barely be detected (FIG. 3J). […]
# c-RAF = target: T2, c-RAF (Homo sapiens, UniProt P04049); experiment: In vitro kinase activity (Millipore KinaseProfiler): c-RAF; assay type: biochemical; conditions: no head or unit printed
# T2 construct: purchased Millipore (KinaseProfiler service)
# Method: as §3, §4
# PKA = target: T3, PKA (Homo sapiens, UniProt P17612); experiment: In vitro kinase activity (Millipore KinaseProfiler): PKA; assay type: biochemical; conditions: no head or unit printed
# T3 construct: purchased Millipore (KinaseProfiler service)
# Method: as §3, §4
# PKCδ = target: T4, PKCδ (Homo sapiens, UniProt Q05655); experiment: In vitro kinase activity (Millipore KinaseProfiler): PKCδ; assay type: biochemical; conditions: no head or unit printed
# T4 construct: purchased Millipore (KinaseProfiler service)
# Method: as §3, §4
# Plk3 = target: T5, Plk3 (Homo sapiens, UniProt Q9H4B4); experiment: In vitro kinase activity (Millipore KinaseProfiler): Plk3; assay type: biochemical; conditions: no head or unit printed
# T5 construct: purchased Millipore (KinaseProfiler service)
# Method: as §3, §4
# T5 sequence (Q9H4B4 whole entry, species assumed): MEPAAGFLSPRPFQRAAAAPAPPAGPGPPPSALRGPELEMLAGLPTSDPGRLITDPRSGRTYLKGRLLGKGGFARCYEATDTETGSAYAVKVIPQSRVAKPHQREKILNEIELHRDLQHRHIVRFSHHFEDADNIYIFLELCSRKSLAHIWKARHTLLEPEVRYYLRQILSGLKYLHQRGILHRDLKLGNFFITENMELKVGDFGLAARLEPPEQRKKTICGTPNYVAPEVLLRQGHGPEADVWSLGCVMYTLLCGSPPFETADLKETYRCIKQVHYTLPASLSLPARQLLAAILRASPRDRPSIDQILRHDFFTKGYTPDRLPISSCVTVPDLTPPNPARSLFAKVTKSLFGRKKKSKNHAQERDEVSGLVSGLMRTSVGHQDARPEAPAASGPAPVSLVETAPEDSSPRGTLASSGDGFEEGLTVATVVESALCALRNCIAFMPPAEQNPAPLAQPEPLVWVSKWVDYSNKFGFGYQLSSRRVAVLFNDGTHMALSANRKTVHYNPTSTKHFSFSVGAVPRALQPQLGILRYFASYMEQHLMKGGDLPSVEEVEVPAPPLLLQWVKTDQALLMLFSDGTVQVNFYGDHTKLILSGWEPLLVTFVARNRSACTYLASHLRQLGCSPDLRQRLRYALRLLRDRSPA
# T4 sequence (Q05655 whole entry): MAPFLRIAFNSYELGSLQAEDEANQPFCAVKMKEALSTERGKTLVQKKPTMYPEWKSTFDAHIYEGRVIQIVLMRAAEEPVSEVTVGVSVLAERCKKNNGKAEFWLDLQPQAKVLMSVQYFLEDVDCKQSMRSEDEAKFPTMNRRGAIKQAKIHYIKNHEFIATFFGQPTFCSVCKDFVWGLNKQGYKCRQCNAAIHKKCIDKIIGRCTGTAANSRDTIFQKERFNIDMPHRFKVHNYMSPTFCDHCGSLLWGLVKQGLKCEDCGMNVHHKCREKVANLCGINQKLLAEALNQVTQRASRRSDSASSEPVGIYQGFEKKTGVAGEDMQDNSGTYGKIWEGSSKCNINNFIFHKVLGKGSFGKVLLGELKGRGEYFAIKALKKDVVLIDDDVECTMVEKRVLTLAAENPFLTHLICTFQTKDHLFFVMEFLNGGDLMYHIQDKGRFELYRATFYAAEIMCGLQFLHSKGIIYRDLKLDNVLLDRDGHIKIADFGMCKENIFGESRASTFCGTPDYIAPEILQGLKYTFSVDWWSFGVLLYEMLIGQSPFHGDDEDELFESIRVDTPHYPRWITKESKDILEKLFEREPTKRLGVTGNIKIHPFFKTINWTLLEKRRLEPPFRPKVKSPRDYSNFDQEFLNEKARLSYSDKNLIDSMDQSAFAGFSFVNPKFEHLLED
# T1 sequence (P41240 whole entry, species assumed): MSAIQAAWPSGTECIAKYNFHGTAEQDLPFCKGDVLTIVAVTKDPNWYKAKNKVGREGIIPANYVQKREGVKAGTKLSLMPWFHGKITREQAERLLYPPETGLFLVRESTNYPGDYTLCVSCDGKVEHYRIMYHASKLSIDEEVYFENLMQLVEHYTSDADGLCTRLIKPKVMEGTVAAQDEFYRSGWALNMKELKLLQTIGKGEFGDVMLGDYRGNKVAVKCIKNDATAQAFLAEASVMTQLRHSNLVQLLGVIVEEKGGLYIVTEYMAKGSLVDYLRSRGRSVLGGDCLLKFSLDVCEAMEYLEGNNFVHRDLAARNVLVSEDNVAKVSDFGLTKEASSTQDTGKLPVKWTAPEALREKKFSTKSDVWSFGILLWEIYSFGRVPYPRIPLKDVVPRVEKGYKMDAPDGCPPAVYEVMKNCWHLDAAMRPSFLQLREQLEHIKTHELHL
# T2 sequence (P04049 whole entry, species assumed): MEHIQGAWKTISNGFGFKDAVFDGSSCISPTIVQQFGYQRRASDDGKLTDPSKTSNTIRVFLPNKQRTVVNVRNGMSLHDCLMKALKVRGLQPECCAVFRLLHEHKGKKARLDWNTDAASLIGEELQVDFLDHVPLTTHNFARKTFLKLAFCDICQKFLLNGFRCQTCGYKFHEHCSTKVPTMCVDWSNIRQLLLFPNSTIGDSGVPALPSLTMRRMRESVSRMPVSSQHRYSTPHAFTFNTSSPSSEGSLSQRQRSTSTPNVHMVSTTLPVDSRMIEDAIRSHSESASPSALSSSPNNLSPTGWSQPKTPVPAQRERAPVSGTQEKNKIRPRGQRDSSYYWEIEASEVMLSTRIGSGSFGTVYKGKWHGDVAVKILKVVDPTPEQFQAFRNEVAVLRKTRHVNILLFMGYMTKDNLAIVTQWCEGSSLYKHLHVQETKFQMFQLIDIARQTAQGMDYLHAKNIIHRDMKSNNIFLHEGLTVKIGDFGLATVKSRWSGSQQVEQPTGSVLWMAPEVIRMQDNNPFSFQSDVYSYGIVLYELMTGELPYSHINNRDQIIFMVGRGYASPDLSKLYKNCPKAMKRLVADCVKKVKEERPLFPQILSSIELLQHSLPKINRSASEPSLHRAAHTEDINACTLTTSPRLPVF
smiles,measurement,setting,value
"CC(C)(C)c1ccc(S(=O)(=O)NCc2ccc(C(=O)Nc3cccnc3)cc2)cc1 [Example 38, 4-((4-tert-Butylphenylsulfonamido)methyl)-N-(pyridin-3-yl)benzamide]",sensitivity of ACHN cells with VHL silenced by shRNA (clonogenic survival),ACHN shVHL,sensitive
same,"induction of autophagy (vacuoles, LC3 processing)",LC3,did not induce any morphologic or biochemical features of autophagy
same,nuclear condensation (apoptosis),"RCC4 and RCC4/VHL cells; DAPI, RCC4 and RCC4/VHL, FIG. 7C",no nuclear condensation
same,propidium iodide or annexin V staining (apoptosis),"RCC4 and RCC4/VHL cells; RCC4, 5 μM, FACS, FIG. 7D",nor an increase in either propidium iodide or annexin V staining
same,inhibition at 5 µM,RCC4 [1],~60%
same,decrease in ATP levels in VHL-deficient cells,"RCC4 [2]; 5 μM, FIG. 3G",75%
same,concentration dependence of inhibition of ATP production,RCC4 [2]; FIG. 3H,dose-dependent
same,CSK kinase activity,CSK,99
same,c-RAF kinase activity,c-RAF,103
same,PKA kinase activity,PKA,96
same,PKCδ kinase activity,PKCδ,116
same,Plk3 kinase activity,Plk3,104

# Reference: patent US20120225862A1, “HETEROARYL BENZAMIDES, COMPOSITIONS AND METHODS OF USE” (AUCKLAND UNIVSERVICES LIMITED, priority 2009, published 2012)
